Test results from patent US10131657B2, “Bromodomain inhibitors” (AbbVie Inc., priority 2013, dated 2018).

What follows are molecules tested on breast cancer cell line MX-1 (assay: MX-1 cell line proliferation assay, Method A). Settings: Homo sapiens, MX1; MX-1 cells, 96-well, 72 hours, Cell Titer Glo; read-out: Cellular proliferation: EC50 Method A.
Assay type: cell-based
Experimental: The impact of compounds of the Examples on cancer cell proliferation was determined using the breast cancer cell line MX-1 (ATCC) in a 3-day proliferation assay and the data are reported in Table 1.
MX-1 cells were maintained in RPMI 1640 medium (Sigma) supplemented with 10% FBS at 37° C. and an atmosphere of 5% CO2. For compound testing, MX-1 cells were plated in 96-well black bottom plates at a density of 5000 cells/well in 90 μL of culture media and incubated at 370 overnight to allow cell adhesion and spreading. Compound dilution series were prepared in DMSO via a 3-fold serial dilution from 3 mM to 0.1 μM. The DMSO dilution series were then diluted 1:100 in phosphate buffered saline, and 10 μL of the resulted solution were added to the appropriate wells of the MX-1 cell plate. The final compound concentrations in the wells were 3, 1, 0.3, 0.1, 0.03, 0.01, 0.003, 0.001, 0.0003 and 0.0001 μM.
Luminescence readings from the Cell Titer Glo assay were normalized to the DMSO treated cells and analyzed using the GraphPad Prism software with sigmoidal curve fitting to obtain ECs50s. The minimum significant ratio (MSR) was determined to evaluate assay reproducibility (Eastwood et al., (2006) J Biomol Screen, 11: 253-261).

Row | SMILES | EC50
1 | Cc1cc(-c2ccc(-c3cn(C)c(=O)c4[nH]ccc34)c(OCC3CC3)c2)[nH]n1 [Example 1, 4-[2-(cyclopropylmethoxy)-4-(3-methyl-1H-pyrazol-5-yl)phenyl]-6-methyl-1,6-dihydro-7H-pyrrolo[2,3-c]pyridin-7-one] | 151 nM
2 | CCS(=O)(=O)Nc1cc(-c2cn(C)c(=O)c3[nH]ccc23)c(Oc2ccc(F)cc2F)cc1CN(C)C [Example 2, N-[4-(2,4-difluorophenoxy)-2-[(dimethylamino)methyl]-5-(6-methy-7-oxo-6,7-dihydro-1H-pyrrolo[2,3-c]pyridin-4-yl)phenyl]ethanesulfonamide] | 110 nM
3 | CCS(=O)(=O)Nc1cc(-c2cn(C)c(=O)c3[nH]ccc23)c(Oc2ccc(F)cc2F)cc1CN1CCCCC1 [Example 3, N-[4-(2,4-difluorophenoxy)-5-(6-methyl-7-oxo-6,7-dihydro-1H-pyrrolo[2,3-c]pyridin-4-yl)-2-(piperidin-1-ylmethyl)phenyl]ethanesulfonamide] | 36.8 nM
4 | CCS(=O)(=O)Nc1cc(-c2cn(C)c(=O)c3[nH]ccc23)c(Oc2ccc(F)cc2F)cc1CN1CCOCC1 [Example 4, N-[4-(2,4-difluorophenoxy)-5-(6-methyl-7-oxo-6,7-dihydro-1H-pyrrolo[2,3-c]pyridin-4-yl)-2-(morpholin-4-ylmethyl)phenyl]ethanesulfonamide] | 16.3 nM
5 | CCS(=O)(=O)Nc1cc(-c2cn(C)c(=O)c3[nH]ccc23)c(Oc2ccc(F)cc2F)cc1CN1CCN(C)CC1 [Example 5, N-{4-(2,4-difluorophenoxy)-5-(6-methyl-7-oxo-6,7-dihydro-1H-pyrrolo[2,3-c]pyridin-4-yl)-2-[(4-methylpiperazin-1-yl)methyl]phenyl}ethanesulfonamide] | 40.1 nM
6 | CCS(=O)(=O)Nc1cc(-c2cn(C)c(=O)c3[nH]ccc23)c(Oc2ccc(F)cc2F)cc1CO [Example 6, N-[4-(2,4-difluorophenoxy)-2-(hydroxymethyl)-5-(6-methyl-7-oxo-6,7-dihydro-1H-pyrrolo[2,3-c]pyridin-4-yl)phenyl]ethanesulfonamide] | 29.1 nM
7 | CCS(=O)(=O)Nc1cc(-c2cn(C)c(=O)c3[nH]ccc23)c(Oc2ccc(F)cc2F)cc1CNC1CCCC1 [Example 7, N-{2-[(cyclopentylamino)methyl]-4-(2,4-difluorophenoxy)-5-(6-methyl-7-oxo-6,7-dihydro-1H-pyrrolo[2,3-c]pyridin-4-yl)phenyl}ethanesulfonamide] | 139 nM
8 | CCS(=O)(=O)Nc1cc(-c2cn(C)c(=O)c3[nH]ccc23)c(Oc2ccc(F)cc2F)cc1C(N)=O [Example 8, 5-(2,4-difluorophenoxy)-2-[(ethylsulfonyl)amino]-4-(6-methyl-7-oxo-6,7-dihydro-1H-pyrrolo[2,3-c]pyridin-4-yl)benzamide] | 44.9 nM
9 | CCS(=O)(=O)Nc1cc(-c2cn(C)c(=O)c3[nH]ccc23)c(Oc2ccc(F)cc2F)cc1C(=O)NC1CCCC1 [Example 9, N-cyclopentyl-5-(2,4-difluorophenoxy)-2-[(ethylsulfonyl)amino]-4-(6-methyl-7-oxo-6,7-dihydro-1H-pyrrolo[2,3-c]pyridin-4-yl)benzamide] | 65.3 nM
10 | CCS(=O)(=O)Nc1cc(-c2cn(C)c(=O)c3[nH]ccc23)c(Oc2ccc(F)cc2F)cc1C(=O)N(C)C [Example 10, 5-(2,4-difluorophenoxy)-2-[(ethylsulfonyl)amino]-N,N-dimethyl-4-(6-methyl-7-oxo-6,7-dihydro-1H-pyrrolo[2,3-c]pyridin-4-yl)benzamide] | 98.2 nM
11 | CCS(=O)(=O)Nc1cc(-c2cn(C)c(=O)c3[nH]ccc23)c(Oc2ccc(F)cc2F)cc1C(=O)O [Example 11, 5-(2,4-difluorophenoxy)-2-[(ethylsulfonyl)amino]-4-(6-methyl-7-oxo-6,7-dihydro-1H-pyrrolo[2,3-c]pyridin-4-yl)benzoic acid] | 452 nM
12 | CCS(=O)(=O)Nc1cc(-c2cn(C)c(=O)c3[nH]ccc23)c(Oc2ccc(F)cc2F)cc1C(=O)NC1CCOCC1 [Example 12, 5-(2,4-difluorophenoxy)-2-[(ethylsulfonyl)amino]-4-(6-methyl-7-oxo-6,7-dihydro-1H-pyrrolo[2,3-c]pyridin-4-yl)-N-(tetrahydro-2H-pyran-4-yl)benzamide] | 68.4 nM
13 | CCS(=O)(=O)Nc1cc(-c2cn(C)c(=O)c3[nH]ccc23)c(Oc2ccc(F)cc2F)cc1CNCCO [Example 13, N-[4-(2,4-difluorophenoxy)-2-{[(2-hydroxyethyl)amino]methyl}-5-(6-methyl-7-oxo-6,7-dihydro-1H-pyrrolo[2,3-c]pyridin-4-yl)phenyl]ethanesulfonamide] | 307 nM
14 | CCS(=O)(=O)Nc1cc(-c2cn(C)c(=O)c3[nH]ccc23)c(Oc2ccc(F)cc2F)cc1CN1CCCC1c1ccccc1 (centres unmarked) [Example 14, N-{4-(2,4-difluorophenoxy)-5-(6-methyl-7-oxo-6,7-dihydro-1H-pyrrolo[2,3-c]pyridin-4-yl)-2-[(2-phenylpyrrolidin-1-yl)methyl]phenyl}ethanesulfonamide] | 184 nM
15 | CCS(=O)(=O)Nc1cc(-c2cn(C)c(=O)c3[nH]ccc23)c(Oc2ccc(F)cc2F)c(C2CC2)c1 [Example 15, N-[3-cyclopropyl-4-(2,4-difluorophenoxy)-5-(6-methyl-7-oxo-6,7-dihydro-1H-pyrrolo[2,3-c]pyridin-4-yl)phenyl]ethanesulfonamide] | 105 nM
16 | CCS(=O)(=O)c1ccc(OCC2CC2(F)F)c(-c2cn(C)c(=O)c3[nH]c(CN4CCN(c5ccncc5)CC4)cc23)c1 (centres unmarked) [Example 16, 4-{2-[(2,2-difluorocyclopropyl)methoxy]-5-(ethylsulfonyl)phenyl}-6-methyl-2-{[4-(pyridin-4-yl)piperazin-1-yl]methyl}-1,6-dihydro-7H-pyrrolo[2,3-c]pyridin-7-one] | 202 nM
17 | CCS(=O)(=O)c1ccc(OCC2CC2(F)F)c(-c2cn(C)c(=O)c3[nH]c(CN4CCN(c5cccnc5)CC4)cc23)c1 (centres unmarked) [Example 20, 4-{2-[(2,2-difluorocyclopropyl)methoxy]-5-(ethylsulfonyl)phenyl}-6-methyl-2-{[4-(pyridin-3-yl)piperazin-1-yl]methyl}-1,6-dihydro-7H-pyrrolo[2,3-c]pyridin-7-one] | 101 nM
18 | Cn1cc(-c2cc(S(C)(=O)=O)ccc2Oc2cccc(C(=O)NC3CC3)c2)c2cc[nH]c2c1=O [Example 21, N-cyclopropyl-3-[2-(6-methyl-7-oxo-6,7-dihydro-1H-pyrrolo[2,3-c]pyridin-4-yl)-4-(methylsulfonyl)phenoxy]benzamide] | 487 nM
19 | CN1CCN(C(=O)c2cccc(Oc3ccc(S(C)(=O)=O)cc3-c3cn(C)c(=O)c4[nH]ccc34)c2)CC1 [Example 22, 6-methyl-4-[2-{3-[(4-methylpiperazin-1-yl)carbonyl]phenoxy}-5-(methylsulfonyl)phenyl]-1,6-dihydro-7H-pyrrolo[2,3-c]pyridin-7-one] | > 1000 nM
20 | Cn1cc(-c2cc(S(C)(=O)=O)ccc2Oc2cccc(C(=O)N3CCN(CCn4ccnc4)CC3)c2)c2cc[nH]c2c1=O [Example 23, 4-{2-[3-({4-[2-(1H-imidazol-1-yl)ethyl]piperazin-1-yl}carbonyl)phenoxy]-5-(methylsulfonyl)phenyl}-6-methyl-1,6-dihydro-7H-pyrrolo[2,3-c]pyridin-7-one] | > 1000 nM
